Measured values taken from patent publication US20050053680A1, “Pediculicidal compound” (priority 2002, published 2005).
Where two headings read alike, the source gives them in different places.

How the values were obtained:
[1] = tested on: Human lice, Pediculus humanus; settings: in vivo
Louse eggs = settings: for inhibition of embryo development before eyespot stage (in words): Table 10, Undeveloped; for Number of eggs Half-hatched / Number of eggs Undeveloped: Laurex CS 4.00%, GMS N/SE 2.00%; for Undeveloped % (in brackets, Abbott's correction): corrected; for Undeveloped %: uncorrected; for activity against louse eggs (in words): after correction for hatching failure in the Control Group
[2] = Table 10, H2O vehicle, Laurex CS 4.00% (163 eggs), GMS N/SE 2.00% (176 eggs)
[3] = Table 10, IPA/water vehicle, Laurex CS 4.00% (102 eggs), GMS N/SE 2.00% (145 eggs)
[4] = Table 10, IPA/water vehicle, IPA/H2O mix 40.5

Compound: CCCCCCCCCCCCCCCC[N+](C)(C)C.[Cl-] [Dehyquart ACA, Cetrimonium chloride]
- Mortality % (Killed) [1]: 20 (10) %
- Mortality % Total [1]: 20 (10) %
- Number of eggs [1]: 34
- Number of lice Killed [1]: 2
- Number of lice Moribund [1]: 2

Compound: CCCCCCCCCCCCCCCCCC(=O)OCC(O)CO (stereo not drawn) [GMS N/SE, Glyceryl stearate]
- inhibition of embryo development before eyespot stage (in words) (Louse eggs): activity to inhibit the development of the embryo
- Number of eggs Hatched (Louse eggs; [2]): 135
- Number of eggs Half-hatched (Louse eggs; Table 10, H2O vehicle): 7
- Number of eggs Undeveloped (Louse eggs; Table 10, H2O vehicle): 27
- Undeveloped % (in brackets, Abbott's correction) (Louse eggs; Table 10, H2O vehicle): 0%
- Undeveloped % (Louse eggs; Table 10, H2O vehicle): 15.3%
- Number of eggs Hatched (Louse eggs; [3]): 45
- Number of eggs Half-hatched (Louse eggs; Table 10, IPA/water vehicle): 1
- Number of eggs Undeveloped (Louse eggs; Table 10, IPA/water vehicle): 93
- Undeveloped % (in brackets, Abbott's correction) (Louse eggs; Table 10, IPA/water vehicle): 39.7%
- Undeveloped % (Louse eggs; [4]): 64.1%
- activity against louse eggs (in words) (Louse eggs; Table 10): activity could be detected
- Number of lice Moribund [1]: 0
- pediculicidal activity (in words) [1]: showed any activity

Compound: CCCCCCCCCCCCCCCCCCO [Laurex CS, Cetearyl alcohol]
- inhibition of embryo development before eyespot stage (in words) (Louse eggs): activity to inhibit the development of the embryo
- Number of eggs Hatched (Louse eggs; [2]): 117
- Number of eggs Half-hatched (Louse eggs; Table 10, H2O vehicle): 1
- Number of eggs Undeveloped (Louse eggs; Table 10, H2O vehicle): 34
- Undeveloped % (in brackets, Abbott's correction) (Louse eggs; Table 10, H2O vehicle): 0%
- Undeveloped % (Louse eggs; Table 10, H2O vehicle): 20.9%
- Number of eggs Hatched (Louse eggs; [3]): 19
- Number of eggs Half-hatched (Louse eggs; Table 10, IPA/water vehicle): 1
- Number of eggs Undeveloped (Louse eggs; Table 10, IPA/water vehicle): 70
- Undeveloped % (in brackets, Abbott's correction) (Louse eggs; Table 10, IPA/water vehicle): 47.2%
- Undeveloped % (Louse eggs; [4]): 68.6%
- kill of louse eggs (Louse eggs; after correction for Control Group, Table 10): > 50%
- activity against louse eggs (in words) (Louse eggs; Table 10): activity could be detected
- pediculicidal activity (in words) [1]: killed all lice and prevented them from laying any eggs
- pediculicidal activity at different time exposures (in words) [1]: some activity can be demonstrated from 30 minutes application

Compound: Liquid Paraffin [reference compound]
- Mortality % (Killed) [1]: 100 (100) %
- Mortality % Total [1]: 100 (100) %

Compound: Methylparaben & Propylparaben & Ethylparaben [Nipasept]
- Mortality % (Killed) [1]: 20 (15) %
- Mortality % Total [1]: 20 (15) %

Compound: Thymus Vulgaris (Thyme) extract [Thyme Extract]
- Mortality % (Killed) [1]: 21 (5) %
- Mortality % Total [1]: 21 (5) %

Compound: Urtica Dioica (Nettle) extract [Nettle Extract]
- Mortality % (Killed) [1]: 24 (14) %
- Mortality % Total [1]: 24 (14) %
